Test results as given in patent EP4806891A1 (Kangbaida (Sichuan) Biotechnology Co., Ltd., priority 2023, dated 2025).

molecular target: T1, HEK-Blue-hTLR8 cells (Homo sapiens, UniProt Q9NR97); assay: HEK-Blue-hTLR8 cell inhibition assay; type: cell-based; conditions: R848 3 µM, 16 h, OD 620 nm, read-out: TLR8 IC50
T1 construct: expressed in transfected cells; host or cells: HEK-Blue-hTLR8 cells (HEK293-derived reporter line)
T1 sequence (Q9NR97 27-1041): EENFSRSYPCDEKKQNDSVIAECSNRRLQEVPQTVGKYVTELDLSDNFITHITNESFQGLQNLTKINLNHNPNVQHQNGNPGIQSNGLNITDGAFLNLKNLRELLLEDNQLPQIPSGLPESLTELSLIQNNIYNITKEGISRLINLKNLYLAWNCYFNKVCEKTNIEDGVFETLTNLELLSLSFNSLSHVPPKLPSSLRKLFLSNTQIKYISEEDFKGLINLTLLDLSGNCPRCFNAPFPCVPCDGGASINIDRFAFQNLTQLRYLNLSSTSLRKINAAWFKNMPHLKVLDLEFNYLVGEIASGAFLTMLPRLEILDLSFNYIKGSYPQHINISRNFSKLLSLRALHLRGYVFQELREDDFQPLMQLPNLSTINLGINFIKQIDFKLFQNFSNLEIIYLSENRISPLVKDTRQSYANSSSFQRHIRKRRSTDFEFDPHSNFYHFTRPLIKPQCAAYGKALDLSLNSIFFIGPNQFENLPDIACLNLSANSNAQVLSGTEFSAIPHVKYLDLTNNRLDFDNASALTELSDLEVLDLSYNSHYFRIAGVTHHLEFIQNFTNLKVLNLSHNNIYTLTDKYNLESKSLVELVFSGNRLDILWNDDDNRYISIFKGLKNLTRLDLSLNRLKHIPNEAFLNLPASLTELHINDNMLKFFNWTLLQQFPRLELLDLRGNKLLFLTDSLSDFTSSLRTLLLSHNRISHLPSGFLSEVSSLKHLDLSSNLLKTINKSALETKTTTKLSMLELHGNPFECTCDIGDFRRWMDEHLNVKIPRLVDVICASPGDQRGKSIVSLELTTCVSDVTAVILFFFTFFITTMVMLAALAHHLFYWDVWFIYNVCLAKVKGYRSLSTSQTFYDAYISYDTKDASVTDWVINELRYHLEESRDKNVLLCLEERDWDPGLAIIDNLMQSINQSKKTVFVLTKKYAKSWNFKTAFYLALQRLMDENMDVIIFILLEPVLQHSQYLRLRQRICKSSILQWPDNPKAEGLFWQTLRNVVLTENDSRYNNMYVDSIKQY
Summary of the method: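 Cells were pre-incubated 4 h, then co-treated 16 h at 37 °C with compound (10 doses, 0.5–10000 nM final) plus R848 (0.8 µM for TLR7, 3 µM for TLR8) or ODN2006 (1 µM, TLR9). Reporter OD620 gave inhibition relative to DMSO blank and agonist-only controls; IC50 came from curve fitting.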

SMILES	IC50 [nM]
CN1CCC(c2nnc([C@]34CN(c5ccc(OC(F)(F)F)c6ncccc56)C[C@@]3(C(F)(F)F)C4)o2)CC1 [Compound 64, 2-(1-methylpiperidin-4-yl)-5-((1S,5R)-5-(trifluoromethyl)-3-(8-(trifluoromethoxy)quinolin-5-yl)-3-azabicyclo[3.1.0]hexan-1-yl)-1,3,4-oxadiazole]	< 100
COc1ccc(N2C[C@]3(c4nnc(C5CCN(C)CC5)o4)C[C@]3(C(F)(F)F)C2)c2cccnc12 [Compound 66, 2-((1S,5R)-3-(8-methoxyquinolin-5-yl)-5-(trifluoromethyl)-3-azabicyclo[3.1.0]hexan-1-yl)-5-(1-methylpiperidin-4-yl)-1,3,4-oxadiazole]	< 100
NC(=O)CN1CCC(c2nnc([C@]34CN(c5ccc(C(F)(F)F)c6ncccc56)C[C@@]3(C(F)(F)F)C4)o2)CC1 [Compound 77, 2-(4-(5-((1S,5R)-5-(trifluoromethyl)-3-(8-(trifluoromethyl)quinolin-5-yl)-3-azabicyclo[3.1.0]hexan-1-yl)-1,3,4-oxadiazol-2-yl)piperidin-1-yl)acetamide]	< 100
CN1[C@@H]2CC[C@H]1C[C@H](c1nnc([C@]34CN(c5ccc(C(F)(F)F)c6ncccc56)C[C@@]3(C(F)(F)F)C4)o1)C2 [Compound 79, 2-((1R,3S,5S)-8-methyl-8-azabicyclo[3.2.1]octan-3-yl)-5-((1S,5R)-5-(trifluoromethyl)-3-(8-(trifluoromethyl)quinolin-5-yl)-3-azabicyclo[3.1.0]hexan-1-yl)-1,3,4-oxadiazole]	< 100
NC12CCC(c3nnc([C@]45CN(c6ccc(C(F)(F)F)c7ncccc67)C[C@@]4(C(F)(F)F)C5)o3)(CC1)CC2 [Compound 81, 4-(5-((1S,5R)-5-(trifluoromethyl)-3-(8-(trifluoromethyl)quinolin-5-yl)-3-azabicyclo[3.1.0]hexan-1-yl)-1,3,4-oxadiazol-2-yl)bicyclo[2.2.2]octan-1-amine]	< 100
CN1CCC(c2nnc([C@]34CN(c5c(Br)cc(C#N)n6ncc(Br)c56)C[C@@]3(C(F)(F)F)C4)o2)CC1 [Compound 85, 3,5-dibromo-4-((1S,5R)-1-(5-(1-methylpiperidin-4-yl)-1,3,4-oxadiazol-2-yl)-5-(trifluoromethyl)-3-azabicyclo[3.1.0]hexan-3-yl)pyrazolo[1,5-a]pyridine-7-carbonitrile]	< 1000
CN1CCC(c2nnc([C@]34CN(c5c(Br)cc(C#N)n6nccc56)C[C@@]3(C(F)(F)F)C4)o2)CC1 [Compound 86, 5-bromo-4-((1S,5R)-1-(5-(1-methylpiperidin-4-yl)-1,3,4-oxadiazol-2-yl)-5-(trifluoromethyl)-3-azabicyclo[3.1.0]hexan-3-yl)pyrazolo[1,5-a]pyridine-7-carbonitrile]	< 100
CN1CCC(Oc2nnc([C@]34CN(c5ccc(C(F)(F)F)c6ncccc56)C[C@@]3(C(F)(F)F)C4)o2)CC1 [Compound 92, 2-((1-methylpiperidin-4-yl)oxy)-5-((1S,5R)-5-(trifluoromethyl)-3-(8-(trifluoromethyl)quinolin-5-yl)-3-azabicyclo[3.1.0]hexan-1-yl)-1,3,4-oxadiazole]	< 100

The next lines start with the values.

IC50 [nM]	SMILES
< 100	N#Cc1ccc(N2C[C@]3(c4nnc(C5(F)CCNCC5)o4)C[C@]3(C(F)(F)F)C2)c2cccnc12 [Compound 60, 5-((1S,5R)-1-(5-(4-fluoropiperidin-4-yl)-1,3,4-oxadiazol-2-yl)-5-(trifluoromethyl)-3-azabicyclo[3.1.0]hexan-3-yl)quinoline-8-carbonitrile]
< 100	CN1CCC(n2cc([C@]34CN(c5ccc(C#N)c6ncccc56)C[C@@]3(C(F)(F)F)C4)nn2)CC1 [Compound 71, 5-((1S,5R)-1-(1-(1-methylpiperidin-4-yl)-1H-1,2,3-triazol-4-yl)-5-(trifluoromethyl)-3-azabicyclo[3.1.0]hexan-3-yl)quinoline-8-carbonitrile]
< 100	FC(F)(F)c1ccc(N2C[C@]3(c4nnc(C5CCNCC5)o4)C[C@]3(C(F)(F)F)C2)c2cccnc12 [Compound 75, 2-(piperidin-4-yl)-5-((1S,5R)-5-(trifluoromethyl)-3-(8-(trifluoromethyl)quinolin-5-yl)-3-azabicyclo[3.1.0]hexan-1-yl)-1,3,4-oxadiazole]
< 100	FC(F)(F)c1ccc(N2C[C@]3(c4nnc(C5CCN(CC6CC6)CC5)o4)C[C@]3(C(F)(F)F)C2)c2cccnc12 [Compound 76, 2-(1-(cyclopropylmethyl)piperidin-4-yl)-5-((1S,5R)-5-(trifluoromethyl)-3-(8-(trifluoromethyl)quinolin-5-yl)-3-azabicyclo[3.1.0]hexan-1-yl)-1,3,4-oxadiazole]
< 100	N#Cc1ccc(N2C[C@]3(c4nnc(C5CCNCC5)o4)C[C@]3(C(F)(F)F)C2)c2c(F)cnn12 [Compound 80, 3-fluoro-4-((1S,5R)-1-(5-(piperidin-4-yl)-1,3,4-oxadiazol-2-yl)-5-(trifluoromethyl)-3-azabicyclo[3.1.0]hexan-3-yl)pyrazolo[1,5-a]pyridine-7-carbonitrile]
> 1000	CN1CCC(c2nnc([C@]34CN(c5ccc(C#N)n6ncc(Br)c56)C[C@@]3(C(F)(F)F)C4)o2)CC1 [Compound 83, 3-bromo-4-((1S,5R)-1-(5-(1-methylpiperidin-4-yl)-1,3,4-oxadiazol-2-yl)-5-(trifluoromethyl)-3-azabicyclo[3.1.0]hexan-3-yl)pyrazolo[1,5-a]pyridine-7-carbonitrile]
< 1000	CN1CCC(c2nnc([C@]34CN(c5ccc(C#N)n6ncc(Cl)c56)C[C@@]3(C(F)(F)F)C4)o2)CC1 [Compound 84, 3-chloro-4-((1S,5R)-1-(5-(1-methylpiperidin-4-yl)-1,3,4-oxadiazol-2-yl)-5-(trifluoromethyl)-3-azabicyclo[3.1.0]hexan-3-yl)pyrazolo[1,5-a]pyridine-7-carbonitrile]
< 1000	CN1CCC(c2nnc([C@]34CN(c5ccc(C(F)(F)F)n6nccc56)C[C@@]3(C(F)(F)F)C4)o2)CC1 [Compound 87, 2-(1-methylpiperidin-4-yl)-5-((1S,5R)-5-(trifluoromethyl)-3-(7-(trifluoromethyl)pyrazolo[1,5-a]pyridin-4-yl)-3-azabicyclo[3.1.0]hexan-1-yl)-1,3,4-oxadiazole]
< 100	CN1CCC(F)(c2nnc([C@]34CN(c5ccc(C#N)n6nccc56)C[C@@]3(C(F)(F)F)C4)o2)CC1 [Compound 90, 4-((1S,5R)-1-(5-(4-fluoro-1-methylpiperidin-4-yl)-1,3,4-oxadiazol-2-yl)-5-(trifluoromethyl)-3-azabicyclo[3.1.0]hexan-3-yl)pyrazolo[1,5-a]pyridine-7-carbonitrile]
< 100	CN1CCC(c2nnc([C@]34CN(c5ccc(C#N)c6ncnn56)C[C@@]3(C(F)(F)F)C4)o2)CC1 [Compound 91, 5-((1S,5R)-1-(5-(1-methylpiperidin-4-yl)-1,3,4-oxadiazol-2-yl)-5-(trifluoromethyl)-3-azabicyclo[3.1.0]hexan-3-yl)-[1,2,4]triazolo[1,5-a]pyridine-8-carbonitrile]
< 100	CN1CCC(Oc2nnc([C@]34CN(c5ccc(OC(F)(F)F)c6ncccc56)C[C@@]3(C(F)(F)F)C4)o2)CC1 [Compound 93, 2-((1-methylpiperidin-4-yl)oxy)-5-((1S,5R)-5-(trifluoromethyl)-3-(8-(trifluoromethoxy)quinolin-5-yl)-3-azabicyclo[3.1.0]hexan-1-yl)-1,3,4-oxadiazole]
